The target of this experiment is T1, VLA4 (Homo sapiens, UniProt P05556+P13612).
T1 construct: endogenous in cells; host or cells: Ramos cells
Nature of the experiment: Inhibition of VLA4-dependent adhesion to BSA-CS1 (labelled Ramos cells). The class given is cell-based. The conditions noted are these: binding of BCECF-AM labelled Ramos cells to CS1 peptide-coated wells, 2 mM MnCl2, 30 minutes at room temperature; IC50 range. The source says: For example, the cell adhesion inhibitory activity of these compounds may be measured by determining the concentration of inhibitor required to block the binding of VLA-4-expressing cells to fibronectin- or CS1-coated plates. In this assay microtiter wells are coated with either fibronectin (containing the CS-1 sequence) or CS-1. If CS-1 is used, it must be conjugated to a carrier protein, such as bovine serum albumin, in order to bind to the wells. Once the wells are coated, varying concentrations of the test compound are then added together with appropriately labelled, VLA-4-expressing cells. Alternatively, the test compound may be added first and allowed to incubate with the coated wells prior to the addition of the cells. The cells are allowed to incubate in the wells for at least 30 minutes. Following incubation, the wells are emptied and washed. Inhibition of binding is measured by quantitating the fluorescence or radioactivity bound to the plate for each of the various concentrations of test compound, as well as for controls containing no test compound.
VLA-4-expressing cells that may be utilized in this assay include Ramos cells, Jurkat cells, A375 melanoma cells, as well as human peripheral blood lymophocytes (PBLs). The cells used in this assay may be fluorescently or radioactively labelled.
This assay was used to assess the potency of VLA4-directed inhibitory compounds of this invention.
We dissolved BSA-SMCC (Pierce Chemical, Rockford, Ill.; Catalog # 77115) in H2O at a concentration of 10 mg/mL. [SEQ ID NO:4]: […](“Cys-Tyr-CS1 peptide”), which we synthesized by conventional solid phase chemistry and purified by HPLC, was dissolved in 10 mM HEPES pH 5, 50 mM NaCl and 0.1 mM EDTA also at a concentration of 10 mg/mL. We then mixed 500 μL of BSA-SMCC, 250 μL of Cys-Tyr-CS1 peptide and 75 μL of […] and allowed the conjugation reaction to proceed for 30 minutes. We stopped the reaction by adding 1 μL of beta-mercaptoethanol. Samples were analyzed for cross-linking by SDS-PAGE. This reaction produced multiple molecules of the Cys-Tyr-CS1 peptide conjugate to each BSA molecule.
We coated the wells of a Linbro titertek polystyrene 96-well flat bottom plate (Flow Laboratories, Maclean, Va.; catalog #76-231-05) with 100 μL of the above-described BSA-CS1 solution diluted to 1 μg/mL in 0.05 M NaHCO3 (15 mM NaHCO3, 35 mM Na2CO3) pH 9.2. Some wells were not coated with CS1 in order to assess non-specific cell binding (NSB). The plate was then incubated overnight at 4° C.
Following this incubation, the contents of the wells were removed by inverting and blotting the plate. All of the wells were then blocked with 100 μL of 1% BSA in PBS, 0.02% NaN3, for a minimum of one hour at room temperature.
3. Preparation of Fluorescently Labelled Ramos Cells Ramos cells are grown, maintained and labelled in RPMI 1640 culture medium containing 1% BSA. Just prior to running the assay, we added 2′,7′-bis-(2-carboxyethyl)5 (and -6) carboxyfluorescein acetoxymethyl ester (“BCECF-AM”; Molecular Probes Inc., Eugene, Oreg.; catalog #B-1150) to a final concentration of 2 μM to a culture of Ramos cells (4×10^6 cells/mL). We incubated the cells for 20 minutes at 37° C.
Following labelling, the cells were washed twice in assay buffer (24 mM TRIS, 137 mM NaCl, 2.7 mM KCl, pH 7.4, containing 0.1% BSA and 2 mM glucose) to remove any cations originating from the culture medium. The cells were then resuspended in assay buffer to 4×10^6 cells/mL and 2 mM MnCl2 was added to upregulate VLA4 on the surface of the cells.
Immediately prior to running the assay, we removed the BSA blocking solution from the 96-well plates and washed the wells with 100 μL of assay buffer. We then added to each well 25 μL of test cell adhesion inhibitory compound at 2× the final concentration and 25 μL of the labelled Ramos cells. Final concentrations were selected across a range of anticipated IC50s, usually between 0.01 nM–10 μM. […]

As a reminder, the IC50 is the point on the concentration scale where inhibition reaches its midpoint. High values mean a need for much substance, low ones inhibition by little substance.

T1 sequence (P13612 34-1032): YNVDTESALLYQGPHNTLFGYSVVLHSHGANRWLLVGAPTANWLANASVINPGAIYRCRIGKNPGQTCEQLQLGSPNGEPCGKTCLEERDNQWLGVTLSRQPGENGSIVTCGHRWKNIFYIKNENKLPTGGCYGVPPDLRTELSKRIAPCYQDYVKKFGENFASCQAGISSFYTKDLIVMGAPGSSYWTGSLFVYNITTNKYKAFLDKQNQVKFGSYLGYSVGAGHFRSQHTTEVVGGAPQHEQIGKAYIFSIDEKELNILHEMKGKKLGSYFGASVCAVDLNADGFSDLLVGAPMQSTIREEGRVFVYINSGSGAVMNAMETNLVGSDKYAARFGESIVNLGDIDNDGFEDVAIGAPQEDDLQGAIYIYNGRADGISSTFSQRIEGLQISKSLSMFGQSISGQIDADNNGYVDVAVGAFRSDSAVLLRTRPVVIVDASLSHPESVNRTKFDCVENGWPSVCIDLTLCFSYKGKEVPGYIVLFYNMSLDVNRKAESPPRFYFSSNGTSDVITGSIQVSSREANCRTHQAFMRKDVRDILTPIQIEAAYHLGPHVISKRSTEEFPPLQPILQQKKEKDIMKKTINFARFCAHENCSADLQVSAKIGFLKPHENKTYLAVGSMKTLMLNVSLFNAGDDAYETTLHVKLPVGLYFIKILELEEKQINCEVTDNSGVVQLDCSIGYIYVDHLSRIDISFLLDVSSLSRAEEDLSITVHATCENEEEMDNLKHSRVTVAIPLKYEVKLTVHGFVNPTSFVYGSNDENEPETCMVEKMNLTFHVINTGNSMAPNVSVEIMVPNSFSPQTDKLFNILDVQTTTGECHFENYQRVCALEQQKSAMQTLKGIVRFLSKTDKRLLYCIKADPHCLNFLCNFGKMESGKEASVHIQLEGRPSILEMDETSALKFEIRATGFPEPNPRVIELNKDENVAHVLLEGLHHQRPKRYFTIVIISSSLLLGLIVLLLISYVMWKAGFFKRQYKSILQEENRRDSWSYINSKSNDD
T1 sequence (P05556 21-798): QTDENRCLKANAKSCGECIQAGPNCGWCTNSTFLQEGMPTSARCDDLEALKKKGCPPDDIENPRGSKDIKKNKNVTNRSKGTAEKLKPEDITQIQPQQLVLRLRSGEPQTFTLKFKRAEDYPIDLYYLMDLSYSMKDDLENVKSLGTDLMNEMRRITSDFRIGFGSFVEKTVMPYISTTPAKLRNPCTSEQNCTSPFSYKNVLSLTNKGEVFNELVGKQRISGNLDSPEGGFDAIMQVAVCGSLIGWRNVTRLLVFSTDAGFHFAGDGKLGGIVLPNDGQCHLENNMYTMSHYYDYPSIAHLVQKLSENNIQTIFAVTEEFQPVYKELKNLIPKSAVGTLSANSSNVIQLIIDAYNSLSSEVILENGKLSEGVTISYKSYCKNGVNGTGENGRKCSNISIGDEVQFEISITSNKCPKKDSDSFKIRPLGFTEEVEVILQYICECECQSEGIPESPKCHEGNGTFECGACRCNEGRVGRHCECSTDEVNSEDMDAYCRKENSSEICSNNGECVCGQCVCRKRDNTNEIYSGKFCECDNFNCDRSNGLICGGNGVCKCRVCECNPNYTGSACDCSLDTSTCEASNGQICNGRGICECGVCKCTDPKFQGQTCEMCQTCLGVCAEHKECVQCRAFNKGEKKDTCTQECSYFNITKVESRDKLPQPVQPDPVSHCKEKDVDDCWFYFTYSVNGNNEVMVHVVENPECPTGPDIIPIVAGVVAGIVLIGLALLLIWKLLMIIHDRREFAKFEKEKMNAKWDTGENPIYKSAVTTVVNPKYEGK

`CCNC(=O)Nc1ccc(CC(=O)NC(CC(C)C)C(=O)NC(CC(=O)O)c2ccc3c(c2)OCO3)cc1` (stereo not shown) [compound 1077]: the IC50 is 0.05 to 10 µM.

As for `COc1cccc(NC(=O)Nc2ccc(CC(=O)NC(CC(C)C)C(=O)NC(CC(=O)O)c3ccc4c(c3)OCO4)cc2)c1` (stereo not shown) [compound 1078], the half-inhibitory concentration (IC50) lay within 0.05 to 10 µM.

`COc1ccccc1NC(=O)Nc1ccc(CC(=O)NC(CC(C)C)C(=O)NC(CC(=O)O)c2ccc3c(c2)OCO3)cc1` (stereo not shown) [compound 1079] registered an IC50 of under 0.05 µM.

`CC(C)CC(NC(=O)Cc1ccc(NC(=O)Nc2cccnc2)cc1)C(=O)NC(CC(=O)O)c1ccc2c(c1)OCO2` (stereo not shown) [compound 1080] registered an IC50 of 0.05 to 10 µM.

In turn, `CC(C)CC(NC(=O)Cc1ccccc1)C(=O)NC(CC(=O)O)c1ccccc1` (stereo not shown) [compound 1081] returned an IC50 of 0.05 to 10 µM.

Compound `CC(C)CC(NC(=O)CCCc1ccccc1)C(=O)NC(CC(=O)O)c1ccccc1` (stereo not shown) [compound 1082] yielded an IC50 of over 10 µM.

`CC(C)CC(NC(=O)OCc1ccccc1)C(=O)NC(CC(=O)O)c1ccccc1` (stereo not shown) [compound 1085] had an IC50 of over 10 µM.

As to `CC(C)CC(NC(=O)Nc1ccccc1)C(=O)NC(CC(=O)O)c1ccccc1` (stereo not shown) [compound 1086], the IC50 was in the range of 0.05 to 10 µM.

Take `CC(C)CC(C(=O)NC(CC(=O)O)c1ccccc1)N(C)C(=O)CCc1ccc(O)cc1` (stereo not shown) [compound 1087]: the IC50 is over 10 µM.

As to `COc1ccc(C(CC(=O)O)NC(=O)C(CC(C)C)NC(=O)Cc2ccc(NC(=O)Nc3ccccc3)cc2)cc1` (stereo not shown) [compound 1088], the IC50 was under 0.05 µM.

With `COc1ccc(C(CC(=O)O)NC(=O)C(CCSC)NC(=O)Cc2ccc(NC(=O)Nc3ccccc3)cc2)cc1` (stereo not shown) [compound 1089], the IC50 is under 0.05 µM.

As for `CC(C)CC(NC(=O)Cc1ccc(O)cc1)C(=O)NC(CC(=O)O)c1ccccc1` (stereo not shown) [compound 1091], the IC50 was in the range of 0.05 to 10 µM.

Turning to `COc1ccc(CC(=O)NC(CC(C)C)C(=O)NC(CC(=O)O)c2ccccc2)cc1` (stereo not shown) [compound 1092], the IC50 was over 10 µM.

For the compound `CC(C)CC(NC(=O)Cc1ccc([N+](=O)[O-])cc1)C(=O)NC(CC(=O)O)c1ccccc1` (stereo not shown) [compound 1093], the IC50 is over 10 µM.

In the case of `CCCCCCC(=O)NC(CC(C)C)C(=O)NC(CC(=O)O)c1ccccc1` (stereo not shown) [compound 1094], the IC50 is over 10 µM.

`CC(C)CC(NC(=O)Cc1ccccc1O)C(=O)NC(CC(=O)O)c1ccccc1` (stereo not shown) [compound 1096] registered an IC50 of over 10 µM.

`CC(C)CC(NC(=O)Cc1cccc(O)c1)C(=O)NC(CC(=O)O)c1ccccc1` (stereo not shown) [compound 1097] showed an IC50 of 0.05 to 10 µM.

In the case of `CC(C)CC(NC(=O)Cc1ccc(O)c(O)c1)C(=O)NC(CC(=O)O)c1ccccc1` (stereo not shown) [compound 1098], the IC50 is over 10 µM.

Regarding `COc1cc(CC(=O)NC(CC(C)C)C(=O)NC(CC(=O)O)c2ccccc2)c(Br)cc1O` (stereo not shown) [compound 1100], the IC50 fell in the range of 0.05 to 10 µM.

In turn, `CC(C)CC(NC(=O)Cc1ccc(NC(=O)OCc2ccccc2)cc1)C(=O)NC(CC(=O)O)c1ccccc1` (stereo not shown) [compound 1101] had an IC50 of over 10 µM.

Compound `CC(C)CC(NC(=O)Cc1ccc(N)cc1)C(=O)NC(CC(=O)O)c1ccccc1` (stereo not shown) [compound 1103] came in with an IC50 of over 10 µM.

`CC(C)CC(NC(=O)Cc1ccc(NS(=O)(=O)c2ccccc2)cc1)C(=O)NC(CC(=O)O)c1ccccc1` (stereo not shown) [compound 1104] returned an IC50 of 0.05 to 10 µM.

Compound `CC(C)CC(NC(=O)Cc1ccc(NC(=O)c2ccccc2)cc1)C(=O)NC(CC(=O)O)c1ccccc1` (stereo not shown) [compound 1105] had an IC50 of 0.05 to 10 µM.

Take `CC(C)CC(NC(=O)CCCCCNC(=O)Nc1ccccc1)C(=O)NC(CC(=O)O)c1ccccc1` (stereo not shown) [compound 1106]: the IC50 is over 10 µM.

Turning to `CC(C)CC(NC(=O)CCCCCNC(=O)NC(C)(C)C)C(=O)NC(CC(=O)O)c1ccccc1` (stereo not shown) [compound 1107], the IC50 is over 10 µM.

Take `CC(C)CC(NC(=O)Nc1ccc(N)cc1)C(=O)NC(CC(=O)O)c1ccccc1` (stereo not shown) [compound 1109]: the IC50 is over 10 µM.

Consider `CC(C)CC(NC(=O)Nc1ccc(NC(=O)Nc2ccccc2)cc1)C(=O)NC(CC(=O)O)c1ccccc1` (stereo not shown) [compound 1110], for which the half-inhibitory concentration (IC50) lay in the range of 0.05 to 10 µM.

In turn, `COc1cc(CC(=O)NC(CC(C)C)C(=O)NC(CC(=O)O)c2ccccc2)cc(OC)c1O` (stereo not shown) [compound 1111] returned an IC50 of over 10 µM.

As to `CC(C)CC(NC(=O)Cc1ccc(O)c([N+](=O)[O-])c1)C(=O)NC(CC(=O)O)c1ccccc1` (stereo not shown) [compound 1112], the concentration for half-maximal inhibition (IC50) was over 10 µM.

For the compound `CC(C)CC(NC(=O)Cc1cccc([N+](=O)[O-])c1)C(=O)NC(CC(=O)O)c1ccccc1` (stereo not shown) [compound 1113], the half-maximal inhibitory concentration (IC50) is over 10 µM.

Regarding `CC(C)CC(C(=O)NC(CC(=O)O)c1ccccc1)N(C)C(=O)Cc1ccccc1` (stereo not shown) [compound 1114], the IC50 is over 10 µM.

Take `CC(C)CC(NC(=O)Cc1ccccc1)C(=O)NC(CC(=O)O)c1ccc(Cl)cc1` (stereo not shown) [compound 1115]: the IC50 is 0.05 to 10 µM.

`COC(C)C(NC(=O)Cc1ccccc1)C(=O)NC(CC(=O)O)c1ccccc1` (stereo not shown) [compound 1117]: the IC50 is over 10 µM.

As to `COc1ccc(CC(NC(=O)Cc2ccccc2)C(=O)NC(CC(=O)O)c2ccccc2)cc1` (stereo not shown) [compound 1122], the IC50 was over 10 µM.

As to `O=C(O)CC(NC(=O)C(CCc1ccccc1)NC(=O)Cc1ccccc1)c1ccccc1` (stereo not shown) [compound 1123], the IC50 is over 10 µM.

For `O=C(O)CC(NC(=O)C(COCc1ccccc1)NC(=O)Cc1ccccc1)c1ccccc1` (stereo not shown) [compound 1126], the IC50 is over 10 µM.

Take `O=C(O)CC(NC(=O)C(CSCc1ccccc1)NC(=O)Cc1ccccc1)c1ccccc1` (stereo not shown) [compound 1127]: the half-maximal inhibitory concentration (IC50) is 0.05 to 10 µM.

In the case of `CC(C)CC(NC(=O)Cc1ccc(NC(=O)Nc2ccccc2)cc1)C(=O)NC(CC(=O)O)c1ccc2c(c1)CCC2` (stereo not shown) [compound 1128], the IC50 fell in the range of 0.05 to 10 µM.

Compound `O=C(O)CC(NC(=O)C(Cc1ccccc1)NC(=O)Cc1ccc(NC(=O)Nc2ccccc2)cc1)c1ccc2c(c1)OCO2` (stereo not shown) [compound 1129] displayed an IC50 of 0.05 to 10 µM.

The compound `O=C(O)CC(NC(=O)C(Cc1ccccc1)NC(=O)Cc1ccc(NC(=O)Nc2ccccc2)cc1)c1ccccc1` (stereo not shown) [compound 1130] returned an IC50 of 0.05 to 10 µM.

Compound `CCC(C)C(NC(=O)Cc1ccc(NC(=O)Nc2ccccc2)cc1)C(=O)NC(CC(=O)O)c1ccccc1` (stereo not shown) [compound 1131] yielded an IC50 of 0.05 to 10 µM.

For `O=C(O)CC(NC(=O)C(CCCCNC(=O)OCc1ccccc1)NC(=O)Cc1ccc(NC(=O)Nc2ccccc2)cc1)c1ccccc1` (stereo not shown) [compound 1132], the IC50 lay in the range of 0.05 to 10 µM.

In turn, `CCC(C)C(NC(=O)Cc1ccc(NC(=O)Nc2ccccc2)cc1)C(=O)NC(CC(=O)O)c1ccc2c(c1)OCO2` (stereo not shown) [compound 1133] displayed an IC50 of 0.05 to 10 µM.

On to `CC(C)(C)OC(=O)NCC(NC(=O)Cc1ccc(NC(=O)Nc2ccccc2)cc1)C(=O)NC(CC(=O)O)c1ccccc1` (stereo not shown) [compound 1134], for which the IC50 was in the range of 0.05 to 10 µM.

Compound `CSCCC(NC(=O)Cc1ccc(NC(=O)Nc2ccccc2)cc1)C(=O)NC(CC(=O)O)c1ccccc1` (stereo not shown) [compound 1135] yielded an IC50 of under 0.05 µM.

As for `NCC(NC(=O)Cc1ccc(NC(=O)Nc2ccccc2)cc1)C(=O)NC(CC(=O)O)c1ccccc1` (stereo not shown) [compound 1138], the IC50 is 0.05 to 10 µM.

Regarding `NCCCCC(NC(=O)Cc1ccc(NC(=O)Nc2ccccc2)cc1)C(=O)NC(CC(=O)O)c1ccccc1` (stereo not shown) [compound 1139], the IC50 was 0.05 to 10 µM.

`CC(C)CC(NC(=O)Cc1ccc(O)cc1)C(=O)NC(CC(=O)O)Cc1ccccc1` (stereo not shown) [compound 1143] had an IC50 of over 10 µM.

Turning to `CC(C)CC(NC(=O)Cc1ccc(O)cc1)C(=O)NC(CC(=O)O)c1ccccc1` (stereo not shown) [compound 1144], the IC50 lay within 0.05 to 10 µM.

The values above are taken from patent US7001921B1, “Cell adhesion inhibitors” (Biogen Idec MA Inc., priority 1995, dated 2006).
